The values below come from publication PMC5743070 (The Journal of Biological Chemistry, 2017).

The structures appear in SMILES notation.

The assay addresses T1, TTD–PHD (UHRF1_126–366) (Homo sapiens, UniProt Q96T88).
T1 construct: His tag (TEV-cleavable) (N); made in house
T1 sequence (Q96T88 126-366): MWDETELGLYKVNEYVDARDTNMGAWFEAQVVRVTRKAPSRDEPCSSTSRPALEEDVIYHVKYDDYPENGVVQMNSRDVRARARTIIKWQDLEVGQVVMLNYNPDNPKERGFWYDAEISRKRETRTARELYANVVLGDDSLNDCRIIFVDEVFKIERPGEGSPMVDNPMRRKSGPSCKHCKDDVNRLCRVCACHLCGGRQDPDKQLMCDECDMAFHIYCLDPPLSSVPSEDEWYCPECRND
In words: SES ensemble fitting of SAXS data of TTD–PHD with BPC. The text has this:
The Rg-based Kratky plot is shifted to higher coordinate values with respect to its position for apo TTD–PHD (supplemental Fig. S4). […] We performed SES fitting of SAXS data collected for TTD–PHD in the presence of BPC using MDPIN/OUT. The optimal ensemble, OEBPC(SAXS), fits the data reasonably well in the q range of 0 < q < 0.2. The Rg distribution is bimodal with the major peak at ∼25 Å and a minor peak at ∼34 Å (Fig. 4D). […] These less-compact, “linker-out” conformers should be unable to bind to H3K9me3 peptides in a cooperative manner (as in PDB code 3ASK ([10], [23])) and, in addition, be unable to bind via the isolated TTD because groove-H3K9me3 contacts found to be essential for this binding mode, as reported by Nady et al. ([9]), are blocked.
We used an ensemble approach for the structural characterization of the TTD–PHD in solution by utilizing the SES protocol ([18]). The strategy on which the SES method is based consists of two main steps: 1) generate the initial ensemble of conformations to approximate the conformational space available for a system in solution and 2) find the optimal population weight for each member of the initial ensemble that minimizes the discrepancy between the ensemble-predicted and the observed experimental data. The goodness of the ensemble fit is measured as χ^2. […] The ARMOR output was analyzed to select the optimal ensemble size using the l-curve ([18]), and the vector of the optimal weights, w, was calculated by averaging over top near optimal solutions with similar value of χ^2. […]

Where [1] appears, read: SES fitting using MDPIN/OUT, TTD–PHD with BPC.

Turning to `N=C(N)N1CCC(Cc2ccccc2)CC1` [BPC, 4-benzylpiperidine-1-carboximidamide], where the note is “6,000 starting structures with linker bound to groove”, the “contribution of linker-bound structures to OEBPC(SAXS)” value was “zero contribution”. Besides, under setting [1], the “Rg distribution of OEBPC(SAXS), major peak” value is recorded as about 25 Å and the “Rg distribution of OEBPC(SAXS), minor peak” value was about 34 Å.
